Assay results from patent US20220305012A1, “L[…] TREATING SLEEP ISSUES” (EISAI R&D MANAGEMENT CO., LTD., priority 2019, published 2022).

Columns and labels:
[1] = tested on: Subjects Having Insomnia Disorder; test: Example 2: return to sleep latency; assay type: in vivo, human
[2] = tested on: Subjects Having Insomnia Disorder; test: Example 2: latency to persistent sleep (LPS), polysomnography; assay type: in vivo, human
Description: As used herein, the term “latency to persistent sleep”, abbreviated as “LPS.” means the minutes from lights off to the first epoch of 20 consecutive epochs (10 minutes) of non-wakefulness.
In some embodiments, a sleep parameter is determined objectively using polysomnography. Polysomnography is the monitoring of multiple electrophysiological parameters during sleep and generally includes measurement of EEG activity, electro-oculographic activity and electromyographic activity, as well as other measurements.
LPS—latency to persistent sleep: minutes from lights off to the first epoch of 20 consecutive epochs of non-wakefulness.
The treatment period lasted for 31 days. Subjects were randomized in a double-blind manner and received placebo, a tablet containing 5 mg of lemborexant, a tablet containing 10 mg of lemborexant, or a tablet containing 6.25 mg of zolpidem ER.
Within 5 minutes of the subject's mean habitual bedtime, study drug was administered and an overnight polysomnogram recording was initiated. At completion of the recording the following morning (Day 2), postural stability and cognitive performance were assessed. On the Day 2 evening, subjects returned to the clinic and a blood sample was collected before administering study drug, and then study drug was administered within 5 minutes of the subject's mean habitual bedtime. Again, a polysomnogram recording was initiated. The next morning (Day 3), postural stability and cognitive performance were assessed. A blood sample was also collected.
On Day 29, subjects returned to the clinic. Study drug was administered within 5 minutes of the subject's mean habitual bedtime and a polysomnogram recording was conducted. On the following morning (Day 30), postural stability and cognitive performance were assessed. After 1.5 hours of waketime, subjects rated their morning sleepiness level.
(§1) On the evening of Day 30, subjects returned to the clinic. A pre-dose blood sample was collected and study drug was again administered within 5 minutes of the subject's mean habitual bedtime. A polysomnogram recording was initiated. The following morning (Day 31), postural stability and cognitive performance were assessed and a blood sample was obtained. The ISI, FSS, EQ-5D-3L and PGI-Insomnia were administered. Blood and urine samples were collected for routine safety assessment. An electrocardiogram was performed, and vital signs and weight were assessed. The eC-SSRS was then administered to the subject. At 1.5 hours after waketime, subjects rated their morning sleepiness level.
The primary endpoint was to determine the change from baseline for mean latency to persistent sleep on days 29 and 30 of 5 mg or 10 mg lemborexant compared to placebo.

[3] = tested on: Subjects Having Insomnia Disorder; test: Example 2: auditory awakening threshold
[4] = tested on: Subjects Having Insomnia Disorder; test: Example 2: Insomnia Severity Index Total Score (Items 1-7); assay type: in vivo, human; details: for Insomnia Severity Total Score (Items 1-7), Change from Study Baseline, Mean (SD) / Insomnia Severity Total Score (Items 1-7), Change from Study Baseline, Median / Insomnia Severity Total Score (Items 1-7), Mean (SD) / Insomnia Severity Total Score (Items 1-7), Median: Day 31
Text: As used herein, the term “Insomnia Severity Index”, abbreviated as “ISI”, is an index calculated using a 7-item, self-report questionnaire assessing the nature, severity, and impact of insomnia (see Bastien, C. H., et al. “Validation of the Insomnia Severity Index as an outcome measure for insomnia research.” Sleep Med. 2001; 2(4): 297-307). The questionnaire evaluates: (1) severity of sleep onset; (2) sleep maintenance; (3) early morning awakening problems; (4) sleep dissatisfaction; (5) interference caused by sleep difficulties with daytime functioning; (6) noticeability of sleep problems by others; and (7) distress caused by the sleep difficulties. A 5-point scale is used to rate each item (0=no problem to 4=very severe problem) yielding a total score from 0 to 28. Total ISI score (items (1)-(7)) and daytime functioning (items (4)-(7)) are analyzed separately.
On day 1 of the baseline period, subjects were admitted to the clinic and ISI, FSS, and EQ-5D-3L were administered. Blood and urine samples were collected for routine safety assessments, an ECG was performed, and vital signs and weight were assessed. The eC-SSRS was administered. Subjects who completed the baseline period and continued to meet the eligibility criteria were randomized and began the randomization phase.
as §1

[5] = tested on: Subjects Having Insomnia Disorder; test: Example 2: Cognitive Performance Assessment Battery; assay type: in vivo, human
Description: FIG. 11A-FIG. 11D show the change from baseline (least squares mean) in the four domains of the Cognitive Performance Assessment Battery at Days 2/3 and Days 30/31 in patients treated with placebo, 6.25 mg of zolpidem, 5 mg of lemborexant, or 10 mg of lemborexant.
Subjects were provided with a sleep diary and trained on how to record entries. After subjects completed the sleep diary on 7 consecutive mornings, and provided that the subject was still eligible to participate in the study, they attended a second clinical meeting between 10 and 17 days before the randomization phase. […]
Within 5 minutes of the subject's mean habitual bedtime, study drug was administered and an overnight polysomnogram recording was initiated. At completion of the recording the following morning (Day 2), postural stability and cognitive performance were assessed. […] The next morning (Day 3), postural stability and cognitive performance were assessed. […]
On Day 29, subjects returned to the clinic. […] On the following morning (Day 30), postural stability and cognitive performance were assessed. […]
On the evening of Day 30, subjects returned to the clinic. […] The following morning (Day 31), postural stability and cognitive performance were assessed and a blood sample was obtained. […] An electrocardiogram was performed, and vital signs and weight were assessed. […]

Cc1ncc(OC[C@@]2(c3cccc(F)c3)C[C@H]2C(=O)Nc2ccc(F)cn2)c(C)n1 [Lemborexant, (1R,2S)-2-(((2,4-dimethylpyrimidin-5-yl)oxy)methyl)-2-(3-fluorophenyl)-N-(5-fluoropyridin-2-yl)cyclopropanecarboxamide]
Return to Sleep Latency, LSM - Difference vs. Placebo ([1]; Lemborexant 5 mg): -22.5 min
Return to Sleep Latency, Mean (SD) change from baseline ([1]; Lemborexant 5 mg): -22.8 min
Return to Sleep Latency, Postdose ([1]; Lemborexant 5 mg): 18.1 min
Return to Sleep Latency, LSM - Difference vs. Placebo ([1]; Lemborexant 10 mg): -28.7 min
Return to Sleep Latency, Mean (SD) change from baseline ([1]; Lemborexant 10 mg): -28.7 min
Return to Sleep Latency, Postdose ([1]; Lemborexant 10 mg): 12.1 min
return to sleep latency ([1]; both doses, vs placebo and zolpidem (Table 28)): greater reduction in return to sleep latency than treatment with placebo and zolpidem
LPS LSM treatment ratio: Lemborexant/Zolpidem ([2]; 5 mg vs zolpidem ER 6.25 mg, Days 1/2): 0.874
LPS LSM treatment ratio: Lemborexant/Zolpidem ([2]; 5 mg vs zolpidem ER 6.25 mg, Days 29/30): 0.634
LPS LSM treatment ratio: Active/Placebo ([2]; 5 mg, Days 1/2): 0.850
LPS, Mean ([2]; 5 mg, Days 1/2): 28.27 min
LPS, Median ([2]; 5 mg, Days 1/2): 21.63 min
LPS LSM treatment ratio: Active/Placebo ([2]; 5 mg, Days 29/30): 0.773
LPS, Mean ([2]; 5 mg, Days 29/30): 25.84 min
LPS, Median ([2]; 5 mg, Days 29/30): 18.75 min
LPS, Mean ([2]; 5 mg, Study Baseline): 44.86 min
LPS, Median ([2]; 5 mg, Study Baseline): 33.13 min
LPS Change from Study Baseline, Mean ([2]; 5 mg, at Days 1/2): -16.59 min
LPS Change from Study Baseline, Median ([2]; 5 mg, at Days 1/2): -10.00 min
LPS Change from Study Baseline, Mean ([2]; 5 mg, at Days 29/30): -19.53 min
LPS Change from Study Baseline, Median ([2]; 5 mg, at Days 29/30): -12.00 min
LPS LSM treatment ratio: Lemborexant/Zolpidem ([2]; 10 mg vs zolpidem ER 6.25 mg, Days 1/2): 0.818
LPS LSM treatment ratio: Lemborexant/Zolpidem ([2]; 10 mg vs zolpidem ER 6.25 mg, Days 29/30): 0.594
LPS LSM treatment ratio: Active/Placebo ([2]; 10 mg, Days 1/2): 0.795
LPS, Mean ([2]; 10 mg, Days 1/2): 25.13 min
LPS, Median ([2]; 10 mg, Days 1/2): 21.75 min
LPS LSM treatment ratio: Active/Placebo ([2]; 10 mg, Days 29/30): 0.723
LPS, Mean ([2]; 10 mg, Days 29/30): 22.75 min
LPS, Median ([2]; 10 mg, Days 29/30): 19.25 min
LPS, Mean ([2]; 10 mg, Study Baseline): 44.61 min
LPS, Median ([2]; 10 mg, Study Baseline): 38.50 min
LPS Change from Study Baseline, Mean ([2]; 10 mg, at Days 1/2): -19.48 min
LPS Change from Study Baseline, Median ([2]; 10 mg, at Days 1/2): -10.50 min
LPS Change from Study Baseline, Mean ([2]; 10 mg, at Days 29/30): -21.46 min
LPS Change from Study Baseline, Median ([2]; 10 mg, at Days 29/30): -16.25 min
mean latency to persistent sleep ([2]; all lemborexant treatment groups, relative to baseline, placebo group, and zolpidem group (Table 13)): reduced
Auditory Awakening Threshold, LSM - Difference vs. Placebo ([3]; Lemborexant 5 mg): 1.7
Auditory Awakening Threshold, Mean (SD) ([3]; Lemborexant 5 mg): 51.8
Auditory Awakening Threshold, Median ([3]; Lemborexant 5 mg): 50.0
Auditory Awakening Threshold, LSM - Difference vs. Placebo ([3]; Lemborexant 10 mg): −0.9
Auditory Awakening Threshold, Mean (SD) ([3]; Lemborexant 10 mg): 51.7
Auditory Awakening Threshold, Median ([3]; Lemborexant 10 mg): 52.5
ability to be awakened by an external stimulus (auditory awakening threshold) ([3]; Table 27): did not interfere with a subject's ability to be awakened by an external stimulus
Insomnia Severity Total Score (Items 1-7), Change from Study Baseline, Mean (SD) ([4]; Lemborexant 5 mg): −7.75 (5.474)
Insomnia Severity Total Score (Items 1-7), Change from Study Baseline, Median ([4]; Lemborexant 5 mg): −7.00
Insomnia Severity Total Score (Items 1-7), Mean (SD) ([4]; Lemborexant 5 mg): 11.24 (5.387)
Insomnia Severity Total Score (Items 1-7), Median ([4]; Lemborexant 5 mg): 11.00
Insomnia Severity Total Score (Items 1-7), Change from Study Baseline, Mean (SD) ([4]; Lemborexant 10 mg): −7.92 (5.894)
Insomnia Severity Total Score (Items 1-7), Change from Study Baseline, Median ([4]; Lemborexant 10 mg): −7.00
Insomnia Severity Total Score (Items 1-7), Mean (SD) ([4]; Lemborexant 10 mg): 11.11 (5.639)
Insomnia Severity Total Score (Items 1-7), Median ([4]; Lemborexant 10 mg): 11.00
mean insomnia severity index total score ([4]; lemborexant treatment groups, relative to baseline and the placebo treatment group (Table 22)): reduced
cognitive tests compared with placebo ([5]; either dose, at either time point (FIGS. 11A-11D)): neither dose of lemborexant differed from placebo

Cc1ccc(-c2nc3ccc(C)cn3c2CC(=O)N(C)C)cc1 [Zolpidem ER, zolpidem, reference compound]
Return to Sleep Latency, LSM - Difference vs. Placebo ([1]; Zolpidem 6.25 mg): -21.0 min
Return to Sleep Latency, Mean (SD) change from baseline ([1]; Zolpidem 6.25 mg): -21.2 min
Return to Sleep Latency, Postdose ([1]; Zolpidem 6.25 mg): 19.6 min
LPS LSM treatment ratio: Active/Placebo ([2]; 6.25 mg, Days 1/2): 0.972
LPS, Mean ([2]; 6.25 mg, Days 1/2): 31.87 min
LPS, Median ([2]; 6.25 mg, Days 1/2): 27.00 min
LPS LSM treatment ratio: Active/Placebo ([2]; 6.25 mg, Days 29/30): 1.218
LPS, Mean ([2]; 6.25 mg, Days 29/30): 37.11 min
LPS, Median ([2]; 6.25 mg, Days 29/30): 28.50 min
LPS, Mean ([2]; 6.25 mg, Study Baseline): 44.52 min
LPS, Median ([2]; 6.25 mg, Study Baseline): 31.50 min
LPS Change from Study Baseline, Mean ([2]; 6.25 mg, at Days 1/2): -12.56 min
LPS Change from Study Baseline, Median ([2]; 6.25 mg, at Days 1/2): -5.63 min
LPS Change from Study Baseline, Mean ([2]; 6.25 mg, at Days 29/30): -7.51 min
LPS Change from Study Baseline, Median ([2]; 6.25 mg, at Days 29/30): -2.88 min
Auditory Awakening Threshold, LSM - Difference vs. Placebo ([3]; Zolpidem 6.25 mg): 7.2
Auditory Awakening Threshold, Mean (SD) ([3]; Zolpidem 6.25 mg): 58.4
Auditory Awakening Threshold, Median ([3]; Zolpidem 6.25 mg): 55.0
Insomnia Severity Total Score (Items 1-7), Change from Study Baseline, Mean (SD) ([4]; Zolpidem ER 6.25 mg): −8.26 (6.013)
Insomnia Severity Total Score (Items 1-7), Change from Study Baseline, Median ([4]; Zolpidem ER 6.25 mg): −8.00
Insomnia Severity Total Score (Items 1-7), Mean (SD) ([4]; Zolpidem ER 6.25 mg): 10.98 (5.452)
Insomnia Severity Total Score (Items 1-7), Median ([4]; Zolpidem ER 6.25 mg): 11.00
performance on Cognitive Performance Assessment Battery ([5]; after the first 2 nights of treatment, 3 of the 4 domains vs placebo and 5 mg, 2 of the 4 domains vs 10 mg lemborexant (FIGS. 11A-11D)): significantly worse performance than placebo
